Results from ChEMBL document CHEMBL1909046, “DrugMatrix in vitro pharmacology data”.
pIC50, pKi: −log10 of the molar value. *1 amine or outer side, *2 acyl side, *3 side chain or, on linkers, in order; H or OH if unused. Where a SMILES comes first, the peptide text is derived from it. Bridges are numbered along the chain shown (N, C = ends). Roman numbers before positions name the chains, in order. [ ]: non-standard residue; d: D form. Actinocin(1to9) = Cc1c2oc3c(C)ccc(C(=O)[*:2])c3nc-2c(C(=O)[*:1])c(N)c1=O; NMeV = CN[C@H](C(=O)O)C(C)C; Sar = CNCC(=O)O

Assays:
[1] = target: T1, Alpha-2C adrenergic receptor (Homo sapiens, UniProt P18825); assay: DRUGMATRIX: Adrenergic Alpha-2C radioligand binding (ligand: [3H] MK-912); type: cell membranes, Sf9, Membrane; settings: for IC50: sf9; for pIC50: read-out: IC50; for pKi: read-out: Ki; on pIC50: call rule not given here
T1 sequence (P18825 whole entry): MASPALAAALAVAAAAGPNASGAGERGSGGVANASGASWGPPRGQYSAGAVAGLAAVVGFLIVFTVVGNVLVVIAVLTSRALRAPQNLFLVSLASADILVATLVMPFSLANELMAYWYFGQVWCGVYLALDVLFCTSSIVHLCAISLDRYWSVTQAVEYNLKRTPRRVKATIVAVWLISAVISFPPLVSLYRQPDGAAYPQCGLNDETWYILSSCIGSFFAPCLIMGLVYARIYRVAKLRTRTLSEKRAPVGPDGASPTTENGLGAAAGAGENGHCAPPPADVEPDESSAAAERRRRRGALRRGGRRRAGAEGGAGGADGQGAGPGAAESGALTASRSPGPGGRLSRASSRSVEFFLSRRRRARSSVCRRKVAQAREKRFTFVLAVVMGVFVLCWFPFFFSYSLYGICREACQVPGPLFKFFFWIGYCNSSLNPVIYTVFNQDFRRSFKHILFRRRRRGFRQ

[2] = target: T2, C-X-C chemokine receptor type 1 (Homo sapiens, UniProt P25024); further: in other assays of this panel Not Active means under 50% inhibition at 10 µM
T2 sequence (P25024 whole entry): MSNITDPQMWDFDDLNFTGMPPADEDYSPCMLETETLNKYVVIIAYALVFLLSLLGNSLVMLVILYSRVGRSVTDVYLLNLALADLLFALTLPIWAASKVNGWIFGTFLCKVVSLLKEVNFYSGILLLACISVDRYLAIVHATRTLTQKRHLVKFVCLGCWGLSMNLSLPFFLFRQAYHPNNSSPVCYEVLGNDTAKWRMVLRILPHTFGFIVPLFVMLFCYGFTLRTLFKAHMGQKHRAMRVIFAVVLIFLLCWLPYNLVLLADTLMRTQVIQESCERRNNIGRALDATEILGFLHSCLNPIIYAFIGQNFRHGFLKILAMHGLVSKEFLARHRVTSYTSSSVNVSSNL

[3] = target: T3, Muscarinic acetylcholine receptor M4 (Homo sapiens, UniProt P08173); type: cell membranes, CHO-K1, Membrane; settings: cho-k1; further: in other assays of this panel Not Active means under 50% inhibition at 10 µM
T3 sequence (P08173 whole entry): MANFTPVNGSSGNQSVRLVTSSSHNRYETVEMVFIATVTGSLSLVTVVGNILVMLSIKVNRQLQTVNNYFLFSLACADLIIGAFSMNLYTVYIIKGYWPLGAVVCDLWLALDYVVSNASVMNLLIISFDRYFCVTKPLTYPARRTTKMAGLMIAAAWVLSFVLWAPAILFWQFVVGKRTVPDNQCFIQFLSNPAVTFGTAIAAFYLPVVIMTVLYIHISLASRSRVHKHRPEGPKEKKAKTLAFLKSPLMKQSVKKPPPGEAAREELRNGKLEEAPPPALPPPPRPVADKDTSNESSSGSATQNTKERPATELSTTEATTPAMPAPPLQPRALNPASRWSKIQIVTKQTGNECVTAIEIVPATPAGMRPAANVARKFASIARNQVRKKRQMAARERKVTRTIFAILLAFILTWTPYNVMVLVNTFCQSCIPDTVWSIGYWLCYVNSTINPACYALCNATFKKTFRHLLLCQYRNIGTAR

[4] = target: Prostaglandin G/H synthase 1 (Homo sapiens, UniProt P23219); assay: biochemical; type: tissue-based, Platelet; settings: platelet;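 further: inhibition of COX-1 enzyme activity, with arachidonic acid supplied as substrate; in other assays of this panel Not Active means under 50% inhibition at 10 µM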
Chain of Prostaglandin G/H synthase 1 (P23219 whole entry): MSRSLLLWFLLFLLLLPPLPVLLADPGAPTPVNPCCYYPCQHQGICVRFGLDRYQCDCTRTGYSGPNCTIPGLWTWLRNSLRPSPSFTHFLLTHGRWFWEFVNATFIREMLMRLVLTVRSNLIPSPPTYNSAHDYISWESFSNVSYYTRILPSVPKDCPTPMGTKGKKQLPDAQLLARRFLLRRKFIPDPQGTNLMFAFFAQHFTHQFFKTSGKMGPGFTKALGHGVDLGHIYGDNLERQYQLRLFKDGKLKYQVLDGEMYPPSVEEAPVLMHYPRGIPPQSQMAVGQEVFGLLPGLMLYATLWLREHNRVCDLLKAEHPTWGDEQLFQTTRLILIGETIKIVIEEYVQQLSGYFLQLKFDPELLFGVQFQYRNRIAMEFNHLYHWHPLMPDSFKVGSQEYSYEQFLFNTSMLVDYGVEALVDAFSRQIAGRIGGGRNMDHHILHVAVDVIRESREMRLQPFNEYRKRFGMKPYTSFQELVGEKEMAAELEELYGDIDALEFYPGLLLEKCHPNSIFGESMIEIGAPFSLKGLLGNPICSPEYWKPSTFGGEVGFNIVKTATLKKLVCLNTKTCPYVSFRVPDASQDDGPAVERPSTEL

Cytochrome P450 2A6 = target: T4, Cytochrome P450 2A6 (Homo sapiens, UniProt P11509); settings: bti-tn-5b1-4; further: in other assays of this panel Not Active means under 50% inhibition at 10 µM
T4 sequence (P11509 whole entry): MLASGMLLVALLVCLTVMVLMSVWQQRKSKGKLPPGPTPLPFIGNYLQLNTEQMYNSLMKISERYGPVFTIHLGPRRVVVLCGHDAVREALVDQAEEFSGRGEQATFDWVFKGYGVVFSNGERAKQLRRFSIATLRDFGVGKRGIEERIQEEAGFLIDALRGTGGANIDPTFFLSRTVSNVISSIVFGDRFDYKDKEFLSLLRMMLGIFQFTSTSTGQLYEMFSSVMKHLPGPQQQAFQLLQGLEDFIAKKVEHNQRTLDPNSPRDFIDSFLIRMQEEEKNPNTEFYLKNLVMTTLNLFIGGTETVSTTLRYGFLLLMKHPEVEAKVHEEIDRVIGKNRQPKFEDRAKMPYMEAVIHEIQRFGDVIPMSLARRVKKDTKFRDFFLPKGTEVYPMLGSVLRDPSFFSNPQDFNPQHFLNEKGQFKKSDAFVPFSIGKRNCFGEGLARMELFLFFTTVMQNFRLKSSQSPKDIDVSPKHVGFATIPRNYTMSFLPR

D(3) dopamine receptor = D(3) dopamine receptor (Homo sapiens, UniProt P35462); assay: DRUGMATRIX: Dopamine D3 radioligand binding (ligand: [3H] Spiperone); type: cell membranes, CHO, Membrane; settings: for IC50: cho
Chain of D(3) dopamine receptor (P35462 whole entry): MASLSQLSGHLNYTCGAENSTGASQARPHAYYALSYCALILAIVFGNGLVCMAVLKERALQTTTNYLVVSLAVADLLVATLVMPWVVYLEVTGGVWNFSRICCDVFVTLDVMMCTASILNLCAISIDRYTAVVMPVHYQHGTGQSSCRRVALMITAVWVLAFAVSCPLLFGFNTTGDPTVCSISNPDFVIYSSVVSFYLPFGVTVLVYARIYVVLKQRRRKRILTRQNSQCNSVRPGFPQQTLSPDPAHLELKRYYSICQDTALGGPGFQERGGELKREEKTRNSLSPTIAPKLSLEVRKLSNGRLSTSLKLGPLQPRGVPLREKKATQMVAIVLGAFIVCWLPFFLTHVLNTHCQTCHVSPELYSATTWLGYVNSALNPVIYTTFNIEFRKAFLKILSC

Clc1cccc(Cl)c1NC1=NCCN1 [CLONIDINE]
Not Active: IC50 [1] | IC50 [2] | IC50 [3] | IC50 [4] | IC50 (Cytochrome P450 2A6) | Ki (Cytochrome P450 2A6) | IC50 (D(3) dopamine receptor)

Cc1cc(C(C#N)c2ccc(Cl)cc2)c(Cl)cc1NC(=O)c1cc(I)cc(I)c1O (configuration not stated) [CLOSANTEL]
Not Active: IC50 [2] | IC50 [3] | IC50 [4] | IC50 (Cytochrome P450 2A6) | Ki (Cytochrome P450 2A6) | IC50 (D(3) dopamine receptor)
5.15: pIC50 [1]
6.00: pKi [1]

Cc1onc(-c2ccccc2Cl)c1C(=O)N[C@@H]1C(=O)N2[C@@H]1SC(C)(C)[C@@H]2C(=O)O [CLOXACILLIN]
Not Active: IC50 [1] | IC50 [2] | IC50 [3] | IC50 [4] | IC50 (Cytochrome P450 2A6) | Ki (Cytochrome P450 2A6) | IC50 (D(3) dopamine receptor)

CC1CC(OC(=O)C(O)c2ccccc2)CC(C)(C)C1 (configuration not stated) [CYCLANDELATE]
Not Active: IC50 [1] | IC50 [2] | IC50 [3] | IC50 [4] | IC50 (Cytochrome P450 2A6) | Ki (Cytochrome P450 2A6) | IC50 (D(3) dopamine receptor)

Cc1c2oc3c(C)ccc(C(=O)N[C@@H]4C(=O)N[C@H](C(C)C)C(=O)N5CCC[C@H]5C(=O)N(C)CC(=O)N(C)[C@@H](C(C)C)C(=O)O[C@@H]4C)c3nc-2c(C(=O)N[C@@H]2C(=O)N[C@H](C(C)C)C(=O)N3CCC[C@H]3C(=O)N(C)CC(=O)N(C)[C@@H](C(C)C)C(=O)O[C@@H]2C)c(N)c1=O [DACTINOMYCIN] (I: T[dV]P[Sar][NMeV] / II: T[dV]P[Sar][NMeV]; ester I:1-I:C, II:1-II:C; linker I:N-II:N via Actinocin(1to9))
Not Active: IC50 [1] | IC50 [2] | IC50 [3] | IC50 [4] | IC50 (Cytochrome P450 2A6) | Ki (Cytochrome P450 2A6) | IC50 (D(3) dopamine receptor)

Cc1c(O)c(=O)ccn1C [DEFERIPRONE]
Not Active: IC50 [1] | IC50 [2] | IC50 [3] | IC50 [4] | IC50 (Cytochrome P450 2A6) | Ki (Cytochrome P450 2A6) | IC50 (D(3) dopamine receptor)

CNCCCN1c2ccccc2CCc2ccccc21 [DESIPRAMINE]
Not Active: IC50 [1] | IC50 [2] | IC50 [3] | IC50 [4] | IC50 (Cytochrome P450 2A6) | Ki (Cytochrome P450 2A6) | IC50 (D(3) dopamine receptor)

O=c1oc2ccccc2c(O)c1Cc1c(O)c2ccccc2oc1=O [DICUMAROL]
Not Active: IC50 [1] | IC50 [2] | IC50 [3] | IC50 [4] | IC50 (Cytochrome P450 2A6) | Ki (Cytochrome P450 2A6) | IC50 (D(3) dopamine receptor)

C[C@H]1O[C@@H](O[C@H]2[C@@H](O)C[C@H](O[C@H]3[C@@H](O)C[C@H](O[C@H]4CC[C@@]5(C)[C@H](CC[C@@H]6[C@@H]5C[C@@H](O)[C@]5(C)[C@@H](C7=CC(=O)OC7)CC[C@]65O)C4)O[C@@H]3C)O[C@@H]2C)C[C@H](O)[C@@H]1O [DIGOXIN]
Not Active: IC50 [1] | IC50 [2] | IC50 [3] | IC50 [4] | IC50 (Cytochrome P450 2A6) | Ki (Cytochrome P450 2A6) | IC50 (D(3) dopamine receptor)

CC(C)[C@@]1(NC(=O)[C@@H]2C[C@@H]3c4cccc5[nH]cc(c45)C[C@H]3N(C)C2)O[C@@]2(O)[C@@H]3CCCN3C(=O)[C@H](Cc3ccccc3)N2C1=O.CS(=O)(=O)O [DIHYDROERGOCRISTINE MESYLATE]
8.06: pIC50 [1]
9.11: pKi (D(3) dopamine receptor; read-out: Ki)
8.64: pIC50 (D(3) dopamine receptor; read-out: IC50)
8.90: pKi [1]
Not Active: IC50 [2] | IC50 [3] | IC50 [4] | IC50 (Cytochrome P450 2A6) | Ki (Cytochrome P450 2A6)

CC(=O)O[C@@]12CO[C@@H]1C[C@H](O)[C@@]1(C)C(=O)[C@H](O)C3=C(C)[C@@H](OC(=O)[C@H](O)[C@@H](NC(=O)OC(C)(C)C)c4ccccc4)C[C@@](O)([C@@H](OC(=O)c4ccccc4)[C@H]21)C3(C)C.O.O.O [DOCETAXEL]
Not Active: IC50 [1] | IC50 [2] | IC50 [3] | IC50 [4] | IC50 (Cytochrome P450 2A6) | Ki (Cytochrome P450 2A6) | IC50 (D(3) dopamine receptor)

COc1cc2nc(N3CCN(C(=O)C4COc5ccccc5O4)CC3)nc(N)c2cc1OC (configuration not stated) [DOXAZOSIN]
Not Active: IC50 [1] | IC50 [2] | IC50 [3] | IC50 [4] | IC50 (Cytochrome P450 2A6) | Ki (Cytochrome P450 2A6) | IC50 (D(3) dopamine receptor)
